According to patent US12516179B2, “Chitosan-based nanocomposite as an antimicrobial agent and corrosion inhibitor” (priority 2019, dated 2026):

What was measured:
zebrafish embryos [1] = experiment: Zebrafish embryo acute toxicity assay (CNLS-NCs); type: in vivo, zebrafish (AB strain); details: exposure 24-72 hpf
Procedure: We used wild type zebrafish embryos (AB strain) in our study. For detailed information about our zebrafish aquatic system (Aquaneering, USA), original source of the zebrafish, zebrafish culture, mating protocol, and animal protocol guidelines, the reader is advised to visit the following articles. For the acute toxicity assay, at 24-hours post fertilization (hpf), embryos were dechorionated as described in. Briefly, E3 media were removed and 0.5 mg/mL of pronase enzyme (Sigma, Germany) in 10 mL PTU-E3 media was added and incubated for 10 min at 28° C. until the chorion become soft. Then, embryos were washed 2-3 times with PTU-E3 medium until the embryos were released and free from the chorion. […] The mortality rate and teratogenicity (morphological deformities) were observed and recorded at 2-time point intervals (48 and 72-hpf) using a standard stereo microscope (Zeiss, Germany). The teratogenic effects of both nanoparticles were determined based on the normal embryo morphology of the negative control (FIG. 9A), and abnormal morphology [defects in body size, heart and yolk edema, scoliosis, pigmentation, and movement problem (FIG. 9B)] of the positive control. Teratogenicity was scored at 72-hpf by calculating the number of dead and deformed embryos over the total number of […] embryos used in each concentration (50 embryos). […]

zebrafish embryos [2] = experiment: Zebrafish embryo acute toxicity assay (CZNCs); type: in vivo, zebrafish (Danio rerio), AB strain
Procedure: Fertilized embryos of wild type AB zebrafish strains (Danio rerio) were collected in E3 egg medium in Petri dishes. At 3 hours post-fertilization (hpf), unfertilized and abnormal embryos were discarded. The fertilized embryos were dechorionated with pronase at 24-hpf and retained in 6 well-plates containing E3 egg medium. Next, E3 egg medium was replaced by the different concentrations of drugs to be tested.
We investigated the toxicology of CZNCs nanomaterial with an acute toxicity assay adapted by the Organization of Economic Co-operation and Development (OECD) guideline for testing chemical toxicity (No 203 and 236) and modified it for nanoparticle testing. The purified (acetic acid-free) lyophilized CZNCs nanomaterial was weighted and dissolved in DI water, then sonicated in a water bath for 15 min for several cycles until a complete homogeneous solution is achieved. Next, 24-hpf healthy dechorionated embryos were transferred to 6 well-plate containing the following treatment dissolved in E3 egg medium: (i) four different concentrations (25, 50, 100, 250 μg/mL) of CZNCs (ii) the positive control DEAB ([…]), (iii) the negative control 0.1% DMSO and then incubated at 28.5° C. for an additional 72 h until their age reached 96-hpf. Cumulative survival and mortality were recorded at 3-time point intervals (48, 72, and 96 hpf), In addition, all embryos were observed every day for any teratogenic abnormalities. […] A total of 100 embryos were used for each tested dose condition of the CZNCs, and 20 embryos for DEAB and DMSO concentrations. The toxicity assessment was expressed as a percentage of survived embryos for 96-hpf. Teratogenic score was presented as average standard error of mean. This value was calculated at every stage as the sum of different teratogenic phenotypes, expressed in percentage respect to the total number of possible teratogenic phenotypes at that precise stage of observation.

[3] = test system: SRB induced corrosion on carbon steel (SS400); experiment: EIS of carbon steel (SS400) coupons incubated in SRB media with CLNC / CS@LS; details: SRB with 5% GA
Procedure: The carbon steel coupons were incubated in liquid medium containing enriched SRB biomass (250 mg·VSS/L) along with modified Postage's C medium in simulated inject seawater. […] 200 ml plastic bottles were used for the incubation experiments. The coupons were incubated without CLNC to evaluate the SRB induced corrosion on carbon steel. In next stage, the optimum conditions of the nanocomposite have been verified by using different ratio nanocomposites as well as optimum concentration has been tested by using different concentrations of optimum ratio CLNC. Then the optimum concentration of CLNC were added in the incubating mixture to evaluate the corrosion inhibition imparted by the nanocomposite at different time intervals. The abiotic conditions were made by incubating coupons in same manner without any SRB and nanocomposite to differentiate the SRB induced corrosion from chemical corrosion. All incubation experiments were performed in anaerobic chamber to maintain the anaerobic condition throughout the experiments. […]
EIS analysis was carried out using Gamry potentiostat (Gamry 600+, FA, USA) using the SRB treated carbon steel coupon as a working electrode, calomel and graphite disk electrodes as reference and counter electrodes, respectively. […] The EIS measurements were recorded at an open circuit potential with a 10 mV sinusoidal signal over the frequency range of 0.01-10^5 Hz Before the EIS measurements, steady state conditions were achieved by keeping the whole setup at open circuit potential (OCP) for 30 min. Potentiodynamic polarization curves were measured by scanning the potential from −250 mV to +250 mV vs OCP at a sweep rate of 0.167 mV/s. The experimental results were analyzed by Gamry Echem Analyst software version 7.05.
The mixed SRB culture was enriched from sludge biomass obtained from an offshore oil filed in Qatar. […] The optimum concentration of CS@LS was evaluated in the range of 0-1000 μg·mL^−1 CS@LS and EIS analysis was performed after 10 days of incubation. […]

Structure (SMILES) | LC50 (zebrafish embryos [1]) [µM] | LOEC (zebrafish embryos [2]; 96-hpf, =>20% mortality) [µM] | cumulative mortality (zebrafish embryos [2]; DEAB 1.0 μM, 96-hpf) [%] | cumulative mortality (zebrafish embryos [2]; DEAB at NOEC (0.1), 96-hpf) [%] | LC50 (zebrafish embryos [2]; sigmoidal curve, 95% confidence limit) [µM] | bacterial growth [3] | Rct ([3]; 15 days) | Rf ([3]; 15 days)
CCN(CC)c1ccc(C=O)cc1 [DEAB, Diethylaminobenzaldehyde] | 2.5 | 1.0 | 60 | 10 | 0.94 |  |  | 
O=CCCCC=O [GA, glutaraldehyde] |  |  |  |  |  | complete bacterial growth can be inhibited | 158.8 Ω·cm^2 | 136.4 Ω·cm^2
